According to US20170246311A1, “PEPTIDES FOR BINDING ALTERNATIVELY ACTIVATED MACROPHAGES” (University of Washington, priority 2016, published 2017):
Like-named read-outs stand apart in the source and are kept apart here. Positions of bridges follow the written chain, without caps; N, C: chain ends. Non-standard residues stand in square brackets, D forms with d. Residues, ends and D or L forms follow the SMILES beside them. *: point of attachment. Biotin = O=C1N[C@H]2[C@H](CS[C@H]2CCCCC(=O)*)N1

What was measured:
[1] = Serum stability study in normal mouse serum, analysis by MALDI-TOF MS; details: for overall serum stability (in words): MALDI-TOF MS
Description: The peptide of interest (30 μL of 10 mg/mL stock solution in dH2O) was added to normal mouse serum (300 μL) and incubated at 37° C. in an incubator. At each time point, an aliquot of 40 μL was drawn and an equal volume of ACN was added to the aliquot to precipitate serum proteins. The cloudy mixture was centrifuged at 10,000 rpm for 5 min and then supernatant removed. A solution of 1:1 H2O/ACN (80 μL) was added to the pellet and sonicated for 10 min to further extract the remaining peptides. This resuspended mixture was then centrifuged, and the supernatant was pooled with the former and vacuum-dried on a Speedvac machine. The dried pellet was solubilized in H2O (50 μL) by sonication for 10 min. The mixture was then centrifuged, and the supernatant was drawn and analyzed by MALDI-TOF MS.
To evaluate serum stability of M2pep, the peptide was incubated in mouse serum, and aliquots of the serum at various time points were withdrawn for analysis of degradation patterns by MALDI-TOF MS.
Different M2pep analogs (30 μL from 10 mg/mL stock solution in H2O) were incubated in normal mouse serum (300 μL) at 37° C. in an incubator. An aliquot of the serum (40 μL) was drawn at different time intervals and precipitated with an equal volume of cold ACN. The mixture was centrifuged at 15,000 rpm for 5 min, and the supernatant was collected. A solution of H2O/ACN (1:1 v/v, 80 μL) was added to the pellet with a 10-min sonication to further extract residual peptides. The mixture was then centrifuged. The supernatant was pooled with the former and dried under vacuum on a Speedvac machine. The peptide pellet was resuspended in H2O (50 μL) with a 10-min sonication before analysis by MALDI-ToF MS.

M2 macrophages [2] = test: Binding of M2pep analogs post serum incubation; format: cell-based, mouse; details: for decline in binding activity with serum pre-incubation: 150 μM of M2pepBiotin, 50 μM of AcM2pep(RY)Biotin and cyclic M2pep(RY)Biotin, mouse serum 37° C.
Description: (§1) Peptide solutions at different concentrations for binding study were prepared by dilutions from the stock solution (10 mg/mL in dH2O) with PBS containing 1% BSA (PBSA). M1 and M2 macrophages (50,000 cells/well) were seeded on a black 96-well plate and incubated in the peptide solutions on ice for 20 min. Unbound peptides were washed off with PBSA twice. The macrophages were subsequently incubated with streptavidin-FITC for 15 min on ice to probe for the bound peptides. Excess streptavidin-FITC was washed off with PBSA twice, and the macrophages were then resuspended in PBS for analysis by MACSQuant Flow Cytometer (Miltenyi Biotec, San Diego, Calif.). Propidium iodide was added to the samples before the data acquisition to discriminate dead cells. Flow cytometry data were analyzed with FlowJo Analysis Software (Tree Star, Ashland, Oreg.). Binding study of peptides post serum incubation was similarly performed with the following additions: The peptides (5 mM stock solution in H2O) were diluted in serum to a final concentration of 0.5 mM and incubated at 37° C. in an incubator. At each time point, an aliquot of the peptides was drawn and diluted in PBS to the final concentration for the binding study. The diluted aliquot was heated at 80° C. for 30 min to inactivate serum proteins, stored in a −20° C. freezer, and thawed for use in the binding study after aliquots at all time points were collected.
For TAM targeting applications, M2pep analogs will be exposed to serum during systemic circulation. Therefore, we next studied how the serum stability of M2pep analogs affects subsequent binding to target cells. Peptides were incubated with mouse serum at 37° C. to mimic peptidase exposure in systemic circulation, and aliquots of the serum were withdrawn at various time points for binding studies with polarized macrophages. In general, binding activity of the M2pep analogs corresponded with the peptides' serum stability (FIG. 6). […]

M2 macrophages [3] = test: Binding study of biotinylated peptides on polarized bone marrow-derived macrophages (streptavidin-FITC, flow cytometry); format: cell-based, mouse; details: for Kd: M2 macrophages, half-maximal MFI, read-out: apparent dissociation constant (KD); for binding activity to M2 macrophages (in words): biotinylated peptide, on ice 20 min
Description: All animal handling protocols were approved by the University of Washington Institutional Animal Care and Use Committee. Bone marrow harvest was performed following the previously reported protocol. Briefly, femur and tibia were excised from 6-8 week-old female c57bl6/027 mice. Cuts were made on the ends of each bone, and RPMI 1640 medium was used to flush out bone marrow cells via 18G needle. The cells were cultured on petri dishes in RPMI 1640 medium supplemented with 20% donor horse serum, 1% antibiotic-antimycotic (AbAm), and 20 ng/mL M-CSF. After 7 d of culture, macrophages were activated by replacing M-CSF with 25 ng/mL IFN-γ and 100 ng/mL LPS for M1 macrophage or 25 ng/mL IL-4 for M2 macrophage. The macrophages were activated for 2 d and then scraped off the petri dishes with cell lifter for binding studies.
as §1
All animal handling protocols were approved by the University of Washington Institutional Animal Care and Use Committee. Bone marrow-derived cells were harvested from female c57bl/6 mice as previously described. In brief, femurs and tibias of the mice were excised and flushed with RPMI 1640 medium via an 18G needle. The cells were cultured on petri dishes containing RPMI 1640 medium supplemented with 20% donor horse serum, 1% antibioticantimycotic (AbAm), and 20 ng/mL M-CSF. After 7 d in culture, the medium was replaced with an activation medium whereby M-CSF was replaced with 25 ng/mL IFN-γ and 100 ng/mL LPS for M1 activation or with 25 ng/mL IL-4 for M2 activation. For M1 activation medium, AbAm was replaced with 1% penicillin-streptomycin (Pen-Strep). After 2 d of activation, the activated macrophages were scraped off the petri dishes for binding studies.
Biotinylated peptide stock solutions were prepared in H2O at 10 mg/mL concentration and quantified for the exact concentration using Quant*Tag Biotin quantification kit. The stock solutions were diluted in PBS with 1% BSA (PBSA) to different concentrations for binding studies. Activated macrophages were seeded on a black 96-well plate (50,000 cells/well) and incubated with the peptide solutions for 20 min on ice. The cells were washed twice with PBSA and subsequently incubated with streptavidin-FITC for 15 min on ice. After two additional washes, the cells were resuspended in PBS for analysis via MACSQuant Flow Cytometer (Miltenyi Biotec, San Diego, Calif.). Propidium iodide (PI) was added before running each sample to assess for cell viability. Data analysis was processed on FlowJo Analysis Software (Tree Star, Ashland, Oreg.). […]

Compound	overall serum stability (in words) ([1]; mouse serum, 37° C.)	binding activity to M2 macrophages (in words) (M2 macrophages [3])	serum stability at the W10/W11 endolytic cleavage site ([1]; mouse serum)	also measured
CC(C)[C@H](NC(=O)CNC(=O)[C@H](Cc1c[nH]c2ccccc12)NC(=O)[C@@H]1CCCN1C(=O)[C@H](CC(=O)O)NC(=O)[C@H](CCC(N)=O)NC(=O)[C@H](CCC(=O)O)NC(=O)[C@@H](N)Cc1ccc(O)cc1)C(=O)N[C@@H](CCCCN)C(=O)N[C@@H](Cc1c[nH]c2ccccc12)C(=O)N[C@@H](Cc1c[nH]c2ccccc12)C(=O)N[C@@H](Cc1ccc(O)cc1)C(=O)NCC(=O)NCC(=O)NCC(=O)N[C@@H](CO)C(=O)N[C@@H](CCCCN)C(=O)N[C@@H](CCCCN)C(=O)N[C@@H](CCCCNC(=O)CCCC[C@@H]1SC[C@@H]2NC(=O)N[C@@H]21)C(N)=O [M2pepBiotin, YEQDPWGVKWWYGGGSKK]	Poor serum stability	–	–	decline in binding activity with serum pre-incubation (M2 macrophages [2]): fastest and greatest decline in binding activity; Kd (M2 macrophages [3]): 220 µM
CC(=O)N[C@@H](Cc1ccc(O)cc1)C(=O)N[C@@H](CCC(=O)O)C(=O)N[C@@H](CCC(N)=O)C(=O)N[C@@H](CC(=O)O)C(=O)N1CCC[C@H]1C(=O)N[C@@H](Cc1c[nH]c2ccccc12)C(=O)NCC(=O)N[C@H](C(=O)N[C@@H](CCCCN)C(=O)N[C@@H](Cc1c[nH]c2ccccc12)C(=O)N[C@@H](Cc1c[nH]c2ccccc12)C(=O)N[C@@H](Cc1ccc(O)cc1)C(=O)NCC(=O)NCC(=O)NCC(=O)N[C@@H](CO)C(=O)N[C@@H](CCCCN)C(=O)N[C@@H](CCCCN)C(=O)N[C@@H](CCCCN)C(=O)N[C@@H](CCCCNC(=O)CCCC[C@@H]1SC[C@@H]2NC(=O)N[C@@H]21)C(N)=O)C(C)C [AcM2pepBiotin, Ac-YEQDPWGVKWWYGGGSKKK]	did not improve the overall serum stability	slight, but not statistically significant, reduction in binding activity	–	N-terminal (exolytic) degradation in serum ([1]; mouse serum): resistant to N-terminal degradation; binding selectivity to M2 macrophages over M1 macrophages (M2 macrophages [3]; M2 versus M1 macrophages): retained binding selectivity to M2 macrophages over M1 macrophages
CC(=O)N[C@@H](Cc1ccc(O)cc1)C(=O)N[C@@H](CCC(=O)O)C(=O)N[C@@H](CCC(N)=O)C(=O)N[C@@H](CC(=O)O)C(=O)N1CCC[C@H]1C(=O)N[C@@H](Cc1c[nH]c2ccccc12)C(=O)NCC(=O)N[C@H](C(=O)N[C@@H](CCCCN)C(=O)N1CCC[C@H]1C(=O)N[C@@H](Cc1c[nH]c2ccccc12)C(=O)N[C@@H](Cc1ccc(O)cc1)C(=O)NCC(=O)NCC(=O)NCC(=O)N[C@@H](CO)C(=O)N[C@H](CCCCN)C(=O)N[C@H](CCCCN)C(=O)N[C@H](CCCCN)C(=O)N[C@@H](CCCCNC(=O)CCCC[C@@H]1SC[C@@H]2NC(=O)N[C@@H]21)C(N)=O)C(C)C [W10P, Ac-YEQDPWGVKPWYGGGSkkk] (Ac-YEQDPWGVKPWYGGGS[dK][dK][dK]K(Biotin)-NH2)	–	abrogated the binding activity	did not confer protection at the W10/W11 site	–
CC(=O)N[C@@H](Cc1ccc(O)cc1)C(=O)N[C@@H](CCC(=O)O)C(=O)N[C@@H](CCC(N)=O)C(=O)N[C@@H](CC(=O)O)C(=O)N1CCC[C@H]1C(=O)N[C@@H](Cc1c[nH]c2ccccc12)C(=O)NCC(=O)N[C@H](C(=O)N[C@@H](CCCNC(=N)N)C(=O)N[C@@H](Cc1ccc(O)cc1)C(=O)N[C@@H](Cc1c[nH]c2ccccc12)C(=O)N[C@H](Cc1ccc(O)cc1)C(=O)NCC(=O)NCC(=O)NCC(=O)N[C@@H](CO)C(=O)N[C@H](CCCCN)C(=O)N[C@H](CCCCN)C(=O)N[C@H](CCCCN)C(=O)N[C@@H](CCCCNC(=O)CCCC[C@@H]1SC[C@@H]2NC(=O)N[C@@H]21)C(N)=O)C(C)C [Y12y, Ac-YEQDPWGVRYWyGGGSkkk] (Ac-YEQDPWGVRYW[dY]GGGS[dK][dK][dK]K(Biotin)-NH2)	–	reduced binding activity	did not improve serum stability at the W10/W11 site	–
CC(C)[C@@H]1NC(=O)CNC(=O)[C@H](Cc2c[nH]c3ccccc23)NC(=O)[C@@H]2CCCN2C(=O)[C@H](CC(=O)O)NC(=O)[C@H](CCC(N)=O)NC(=O)[C@H](CCC(=O)O)NC(=O)[C@H](Cc2ccc(O)cc2)NC(=O)CNC(=O)[C@@H](N)CSSC[C@@H](C(=O)N[C@H](CCCCN)C(=O)N[C@H](CCCCN)C(=O)N[C@H](CCCCN)C(=O)N[C@@H](CCCCNC(=O)CCCC[C@@H]2SC[C@@H]3NC(=O)N[C@@H]32)C(N)=O)NC(=O)CNC(=O)[C@H](Cc2ccc(O)cc2)NC(=O)[C@H](Cc2c[nH]c3ccccc23)NC(=O)[C@H](Cc2ccc(O)cc2)NC(=O)[C@H](CCCNC(=N)N)NC1=O [cyclic M2pep(RY)Biotin, CGYEQDPWGVRYWYGCkkk] (H-CGYEQDPWGVRYWYGC[dK][dK][dK]K(Biotin)-NH2; disulfide 1-16)	markedly improved serum stability over the linear AcM2pep(RY)Biotin	comparable binding activity to the linear AcM2pep(RY)Biotin	–	serum incubation time at which the peptide remained detectable by MALDI-TOF MS ([1]; mouse serum, 37° C.): ≥ 48 h; time without endolytic cleavage at the W10/W11 site ([1]; mouse serum, 37° C.): at least 8 h; incubation in mouse serum after which the cyclized peptide was eventually degraded ([1]; prolonged incubation in mouse serum): more than 1 day; decline in binding activity with serum pre-incubation (M2 macrophages [2]): least decline; binding activity after 24 h serum incubation (M2 macrophages [2]; 24 h in mouse serum at 37° C.): retained the highest binding activity; Kd (M2 macrophages [3]; listed as disulfide-cyclized M2pep(RY)): 36.3 µM
CC(=O)N[C@@H](Cc1ccc(O)cc1)C(=O)N[C@@H](CCC(=O)O)C(=O)N[C@@H](CCC(N)=O)C(=O)N[C@@H](CC(=O)O)C(=O)N1CCC[C@H]1C(=O)N[C@@H](Cc1c[nH]c2ccccc12)C(=O)NCC(=O)N[C@H](C(=O)N[C@@H](CCCNC(=N)N)C(=O)N[C@@H](Cc1c[nH]c2ccccc12)C(=O)N[C@@H](Cc1c[nH]c2ccccc12)C(=O)N[C@@H](Cc1ccc(O)cc1)C(=O)NCC(=O)NCC(=O)NCC(=O)N[C@@H](CO)C(=O)N[C@@H](CCCCN)C(=O)N[C@@H](CCCCN)C(=O)N[C@@H](CCCCN)C(=O)N[C@@H](CCCCNC(=O)CCCC[C@@H]1SC[C@@H]2NC(=O)N[C@@H]21)C(N)=O)C(C)C [K9R, Ac-YEQDPWGVRWWYGGGSKKK]	–	significantly increased binding activity	did not confer protection at the W10/W11 site	–
CC(=O)N[C@@H](Cc1ccc(O)cc1)C(=O)N[C@@H](CCC(=O)O)C(=O)N[C@@H](CCC(N)=O)C(=O)N[C@@H](CC(=O)O)C(=O)N1CCC[C@H]1C(=O)N[C@@H](Cc1c[nH]c2ccccc12)C(=O)NCC(=O)N[C@H](C(=O)N[C@@H](CCCCN)C(=O)N[C@@H](Cc1ccc(O)cc1)C(=O)N[C@@H](Cc1c[nH]c2ccccc12)C(=O)N[C@@H](Cc1ccc(O)cc1)C(=O)NCC(=O)NCC(=O)NCC(=O)N[C@@H](CO)C(=O)N[C@H](CCCCN)C(=O)N[C@H](CCCCN)C(=O)N[C@H](CCCCN)C(=O)N[C@@H](CCCCNC(=O)CCCC[C@@H]1SC[C@@H]2NC(=O)N[C@@H]21)C(N)=O)C(C)C [W10Y, Ac-YEQDPWGVKYWYGGGSkkk] (Ac-YEQDPWGVKYWYGGGS[dK][dK][dK]K(Biotin)-NH2)	–	significantly increased binding activity	did not confer protection at the W10/W11 site	–
